Tested on: Avena HPPD
Experiment: HPPD activity assay, wildtype enzyme
Assay type: biochemical, Avena sativa
Settings: Table 12, normalized to Arabidopsis HPPD
Protocol: HPPD produces homogentisic acid and CO2 from 4-hydroxyphenylpyruvate (4-HPP) and O2. The activity assay for HPPD is based on the analysis of homogentisic acid by reversed phase HPLC.
The assay mixture can contain 150 mM potassium phosphate buffer pH 7.0, 50 mM L-ascorbic acid, 100 μM Catalase (Sigma-Aldrich), 1 μM FeSO4 and 0.2 units of purified HPPD enzyme in a total volume of 505 μl. 1 unit is defined as the amount of enzyme that is required to produce 1 nmol of HGA per minute at 20° C.
After a preincubation of 30 min the reaction is started by adding 4-HPP to a final concentration of 0.05 mM. The reaction is allowed to proceed for 45 min at room temperature. The reaction is stopped by the addition of 50 μl of 4.5 M phosphoric acid. The sample is filtered using a […] pore size PVDF filtration device.
5 μl of the cleared sample is analyzed on an UPLC HSS T3 column (particle size 1.8 μm, dimensions 2.1×50 mm; Waters) by isocratic elution using 90% 20 mM NaH2PO4 pH 2.2, 10% methanol (v/v).
HGA is detected electrochemically at 750 mV (mode: DC; polarity: positive) and quantified by integrating peak areas (Empower software; Waters).
Inhibitors are dissolved in DMSO (dimethylsulfoxide) to a concentration of 0.5 mM. From this stock solution serial five-fold dilutions are prepared in DMSO, which are used in the assay. […] IC50 values are calculated using non-linear regression. […]

Q: For Cc1nonc1NC(=O)c1ccc(S(C)(=O)=O)c(S(C)(=O)=O)c1C [Inhibitor 1, 2-methyl-N-(4-methyl-1,2,5-oxadiazol-3-yl)-3,4-bis(methylsulfonyl)benzamide], which “Normalized tolerance index TI Inhibitor 1” value is on record?
A: The value was 1.3.

From patent publication US10829778B2, “Plants having increased tolerance to herbicides” (BASF SE, priority 2013, dated 2020)
